Measurements: US10280198B2, “Therapeutic agents for reducing parathyroid hormone levels” (KAI PHARMACEUTICALS, INC., priority 2009, dated 2019)
Read-outs that look alike come from different tables or passages of the source. Square brackets hold non-standard residues; d marks the D form. Peptide text beside a SMILES is read from it.

What was measured:
[1] = tested on: rat peritoneal mast cells; experiment: In vitro histamine induction in rat peritoneal mast cells; format: cell-based
Procedure: To further evaluate the relationship between compound structure and histamine release, a series of compounds was prepared and assessed for their ability to trigger induction of histamine in an in vitro assay using rat peritoneal mast cells. In this assay, compounds are incubated at 10 μM for 15 minutes at 37° C. with cells isolated from peritoneal lavage of SD rats. Following incubation, cell medium is collected and histamine is determined.
Accordingly, and as can be appreciated in view of the PTH data and the histamine data described hereinabove, in one embodiment, a compound that has activity to decrease PTH level in a subject in the absence of a histamine response is contemplated. In certain embodiments, absence of a histamine response intends a dose of the compound that produces a less than 10-fold, more preferably 8-fold, still more preferably 5-fold, and even still more preferably 3-fold, increase in histamine, measured in vitro in an assay as described herein, where the fold change is determined based on histamine levels before incubation with the compound and after 15 minutes incubation with compound. In a specific embodiment, the histamine response is determined in an in vitro assay using rat peritoneal mast cells isolated from peritoneal lavage of normal Sprague Dawley rats, and where the fold change is determined based on histamine levels before incubation with the compound and after 15 minutes incubation with compound. In the studies conducted herein, the in vitro evaluation of histamine release was performed using isolated rat peritoneal mast cells isolated by peritoneal lavage using cold HBSS+25 mM HEPES pH 7.4 containing heparin (5 u/mL). Cells were washed twice in stimulation buffer (HBSS+25 mM HEPES pH 7.4) and incubated with 10 μM of compound in stimulation buffer (HBSS+25 mM HEPES pH 7.4) for 15 minutes in a 96-well plate ([…]) at 37° C. Cell supernatant was analyzed for histamine using histamine EIA kit (Cayman #589651).
For in vitro evaluation of histamine release, isolated rat peritoneal mast cells were isolated by performing peritoneal lavage using cold HBSS+25 mM HEPES pH 7.4 containing heparin (5 u/mL). Cells were washed twice in stimulation buffer (HBSS+25 mM HEPES pH 7.4) and incubated with 10 μM of compound in stimulation buffer (HBSS+25 mM HEPES pH 7.4) for 15 minutes in a 96-well plate (10^6/well) at 37° C. Cell supernatant was analyzed for histamine using histamine EIA kit (Cayman #589651).

plasma PTH = experiment: In vivo PTH lowering after IV bolus in isoflurane-anesthetized normal Sprague Dawley rats; parameters: species or system rat; conditions: for % PTH reduction of baseline at 1 hour post IV administration of 0.5 mg/kg compound: isoflurane-anesthetized normal rats, 0.5 mg/kg IV; for 0.5 mg/kg IV bolus % PTH AUC of saline control: normal rats, AUC 1-4 h
Procedure: The peptides were administered intravenously at a dose of 0.5 mg/kg into isoflurane-anesthetized normal Sprague Dawley rats. A control group of rats was treated with saline. Blood was drawn prior to dosing and every hour for 4 hours. Rats were maintained under isoflurane anesthesia for the entire study. […] Percent PTH reduction was calculated according to the following formula: AUCcmpd treated/AUCsaline control*100.
An intravenous (IV) bolus of saline was used as a control. Plasma (K2EDTA) PTH levels were assessed prior to dosing and 1, 2, 3 and 4 hours after dosing. Rats were maintained under isoflurane anesthesia for the entire study. […] In FIG. 2B, PTH is shown as percent of the baseline pre-dose value.
A series of compounds having an L-amino acid residue substituted for a D-amino acid residue were prepared. The compounds were administered as an IV bolus to normal Sprague Dawley rats at a dose of 0.5 mg/kg. An intravenous (IV) bolus of saline was used as a control. […] Rats were maintained under isoflurane anesthesia for the entire study.

Structure (SMILES)	Histamine in vitro Fold change of non-treated at 10 uM [1]	% PTH reduction of baseline at 1 hour post IV administration of 0.5 mg/kg compound (plasma PTH; Table 2)	0.5 mg/kg IV bolus % PTH AUC of saline control (plasma PTH; Table 2)	0.5 mg/kg IV bolus % PTH AUC of saline control (plasma PTH; Table 6)	Histamine in vitro Fold change of non-treated at 10 uM ([1]; Table 9, 10 μM, 15 minutes, 37° C.)
CC(=O)N[C@H](CS)C(=O)N[C@H](CCCNC(=N)N)C(=O)N[C@H](CCCNC(=N)N)C(=O)N[C@H](C)C(=O)N[C@H](C)C(=O)N[C@H](CCCNC(=N)N)C(=O)N[C@H](CCCNC(=N)N)C(N)=O [SEQ ID NO: 17, Ac-crraarr-NH2] (Ac-[dC][dR][dR][dA][dA][dR][dR]-NH2)	1.3 fold	39%	102%	–	–
CC(=O)N[C@H](CS)C(=O)N[C@H](CCCNC(=N)N)C(=O)N[C@H](C)C(=O)N[C@H](CCCNC(=N)N)C(=O)N[C@H](C)C(=O)N[C@H](CCCNC(=N)N)C(=O)N[C@H](CCCNC(=N)N)C(N)=O [SEQ ID NO: 18, Ac-crararr-NH2] (Ac-[dC][dR][dA][dR][dA][dR][dR]-NH2)	1.4 fold	72%	87%	–	–
CC(=O)N[C@H](CS)C(=O)N[C@H](CCCNC(=N)N)C(=O)N[C@H](CCCNC(=N)N)C(=O)N[C@H](CCCNC(=N)N)C(=O)N[C@H](C)C(=O)N[C@H](C)C(=O)N[C@H](CCCNC(=N)N)C(N)=O [SEQ ID NO: 21, Ac-crrraar-NH2] (Ac-[dC][dR][dR][dR][dA][dA][dR]-NH2)	1.0 fold	36%	50%	–	–
CC(=O)N[C@H](CS)C(=O)N[C@H](C)C(=O)N[C@H](C)C(=O)N[C@H](CCCNC(=N)N)C(=O)N[C@H](CCCNC(=N)N)C(=O)N[C@H](CCCNC(=N)N)C(=O)N[C@H](CCCNC(=N)N)C(N)=O [SEQ ID NO: 22, Ac-caarrrr-NH2] (Ac-[dC][dA][dA][dR][dR][dR][dR]-NH2)	1.2 fold	24%	48%	–	–
CC(=O)N[C@H](CS)C(=O)N[C@H](CCCNC(=N)N)C(=O)N[C@H](C)C(=O)N[C@H](C)C(=O)N[C@H](CCCNC(=N)N)C(=O)N[C@H](CCCNC(=N)N)C(=O)N[C@H](CCCNC(=N)N)C(N)=O [SEQ ID NO: 24, Ac-craarrr-NH2] (Ac-[dC][dR][dA][dA][dR][dR][dR]-NH2)	1.0 fold	8%	9%	–	–
CC(=O)N[C@H](CS)C(=O)N[C@H](C)C(=O)N[C@H](CCCNC(=N)N)C(=O)N[C@H](CCCNC(=N)N)C(=O)N[C@H](CCCNC(=N)N)C(=O)N[C@H](Cc1ccccc1)C(=O)N[C@H](CCCNC(=N)N)C(N)=O [SEQ ID NO: 83, Ac-carrrfr-NH2] (Ac-[dC][dA][dR][dR][dR][dF][dR]-NH2)	4.0 fold	–	–	177%	–
CC[C@@H](C)[C@@H](NC(=O)[C@@H](CCCNC(=N)N)NC(=O)[C@@H](CCCNC(=N)N)NC(=O)[C@@H](CCCNC(=N)N)NC(=O)[C@@H](C)NC(=O)[C@@H](CS)NC(C)=O)C(=O)N[C@H](CCCNC(=N)N)C(N)=O [SEQ ID NO: 84, Ac-carrrir-NH2] (Ac-[dC][dA][dR][dR][dR][dI][dR]-NH2)	1.8 fold	–	–	161%	–
CC(=O)N[C@H](CS)C(=O)N[C@H](C)C(=O)N[C@H](CCCNC(=N)N)C(=O)N[C@H](CCCNC(=N)N)C(=O)N[C@H](CCCNC(=N)N)C(=O)N[C@H](CC(C)C)C(=O)N[C@H](CCCNC(=N)N)C(N)=O [SEQ ID NO: 85, Ac-carrrlr-NH2] (Ac-[dC][dA][dR][dR][dR][dL][dR]-NH2)	–	–	–	140%	2.5 fold
CC(=O)N[C@H](CS)C(=O)N[C@H](C)C(=O)N[C@H](CCCNC(=N)N)C(=O)N[C@H](CCCNC(=N)N)C(=O)N[C@H](CCCNC(=N)N)C(=O)N[C@@H](C(=O)N[C@H](CCCNC(=N)N)C(N)=O)C(C)C [SEQ ID NO: 87, Ac-carrrvr-NH2] (Ac-[dC][dA][dR][dR][dR][dV][dR]-NH2)	1.2 fold	–	–	79%	–
CC(=O)N[C@H](CS)C(=O)N[C@H](C)C(=O)N[C@H](CCCNC(=N)N)C(=O)N[C@H](CCCNC(=N)N)C(=O)N[C@H](CCCNC(=N)N)C(=O)N1CCC[C@@H]1C(=O)N[C@H](CCCNC(=N)N)C(N)=O [SEQ ID NO: 88, Ac-carrrpr-NH2] (Ac-[dC][dA][dR][dR][dR][dP][dR]-NH2)	1.0 fold	–	–	76%	–
CC(=O)N[C@H](CS)C(=O)N[C@H](C)C(=O)N[C@H](CCCNC(=N)N)C(=O)N[C@H](CCCNC(=N)N)C(=O)N[C@H](CCCNC(=N)N)C(=O)N[C@H](Cc1c[nH]cn1)C(=O)N[C@H](CCCNC(=N)N)C(N)=O [SEQ ID NO: 89, Ac-carrrhr-NH2] (Ac-[dC][dA][dR][dR][dR][dH][dR]-NH2)	2.0 fold	–	–	48%	–
CC(=O)N[C@H](CS)C(=O)N[C@H](C)C(=O)N[C@H](CCCNC(=N)N)C(=O)N[C@H](CCCNC(=N)N)C(=O)N[C@H](CCCNC(=N)N)C(=O)N[C@H](CCC(N)=O)C(=O)N[C@H](CCCNC(=N)N)C(N)=O [SEQ ID NO: 90, Ac-carrrqr-NH2] (Ac-[dC][dA][dR][dR][dR][dQ][dR]-NH2)	0.9 fold	–	–	41%	–
CC(=O)N[C@H](CS)C(=O)N[C@H](C)C(=O)N[C@H](CCCNC(=N)N)C(=O)N[C@H](CCCNC(=N)N)C(=O)N[C@H](CCCNC(=N)N)C(=O)N[C@@H](C(=O)N[C@H](CCCNC(=N)N)C(N)=O)[C@H](C)O [SEQ ID NO: 91, Ac-carrrtr-NH2] (Ac-[dC][dA][dR][dR][dR][dT][dR]-NH2)	1.7 fold	–	–	18%	–
CC(=O)N[C@H](CS)C(=O)N[C@H](C)C(=O)N[C@H](CCCNC(=N)N)C(=O)N[C@H](CCCNC(=N)N)C(=O)N[C@H](CCCNC(=N)N)C(=O)N[C@H](CO)C(=O)N[C@H](CCCNC(=N)N)C(N)=O [SEQ ID NO: 92, Ac-carrrsr-NH2] (Ac-[dC][dA][dR][dR][dR][dS][dR]-NH2)	1.2 fold	–	–	6%	–
CC(=O)N[C@H](CS)C(=O)N[C@H](C)C(=O)N[C@H](CCCNC(=N)N)C(=O)N[C@H](CCCNC(=N)N)C(=O)N[C@H](CCCNC(=N)N)C(=O)NCC(=O)N[C@H](CCCNC(=N)N)C(N)=O [SEQ ID NO: 93, Ac-carrrGr-NH2] (Ac-[dC][dA][dR][dR][dR]G[dR]-NH2)	0.9 fold	–	–	5%	–
CC(=O)N[C@H](CS)C(=O)NCC(=O)N[C@H](CCCNC(=N)N)C(=O)N[C@H](CCCNC(=N)N)C(=O)N[C@H](CCCNC(=N)N)C(=O)N[C@H](C)C(=O)N[C@H](CCCNC(=N)N)C(N)=O [SEQ ID NO: 95, Ac-cGrrrar-NH2] (Ac-[dC]G[dR][dR][dR][dA][dR]-NH2)	1.5 fold	–	–	45%	–
CC[C@@H](C)[C@@H](NC(=O)[C@@H](CS)NC(C)=O)C(=O)N[C@H](CCCNC(=N)N)C(=O)N[C@H](CCCNC(=N)N)C(=O)N[C@H](CCCNC(=N)N)C(=O)N[C@H](C)C(=O)N[C@H](CCCNC(=N)N)C(N)=O [SEQ ID NO: 96, Ac-cirrrar-NH2] (Ac-[dC][dI][dR][dR][dR][dA][dR]-NH2)	3.0 fold	–	–	33%	–
CC(=O)N[C@H](CS)C(=O)N[C@H](CC(C)C)C(=O)N[C@H](CCCNC(=N)N)C(=O)N[C@H](CCCNC(=N)N)C(=O)N[C@H](CCCNC(=N)N)C(=O)N[C@H](C)C(=O)N[C@H](CCCNC(=N)N)C(N)=O [SEQ ID NO: 98, Ac-clrrrar-NH2] (Ac-[dC][dL][dR][dR][dR][dA][dR]-NH2)	2.2 fold	–	–	26%	–
